Marks after values point to notes of the source that are not given here.
Legend:
Assay type in all cases: biochemical
ADH = ADH (Equus caballus, UniProt P00327); assay: Rate of ADH catalyzed NAD+ oxidation of ethanol (rise in absorption at 340 nm) with additives; conditions: pH 9.25
Procedure: In Examples 51-53, the rate of ADH catalyzed NAD^+ oxidation of alcohol is followed by the rise in absorption at 340 nm, with and without additives. When a solvent (methanol) is needed to dissolve the additive, an equal amount is added to the “blank” or “control”. The results, as summarized in Table 3, indicate the effectiveness of Daidezin, Aloin and Methoxatin as accelerators.
To a 0.01M solution of ethanol (10 μL) in 1M pH 9.25 phosphate buffer, in a multi-well plate, is added a solution of aloin, of the indicated concentration (10 μL) and 10 μL of a solution containing 0.2 U/mL ADH and diluted to 180 μL with buffer. To the mixture is added 20 μL of a 0.01M solution of NAD^+ in deionized distilled water, and the absorbance at 340 nm is followed with time.
The procedure in Example 51 is repeated using Daidezin.
The procedure in Example 51 is repeated using Methoxatin.

[1] = Kinetics of transition metal oxidation of NADH (decrease in absorption at 340 nm)
Text: The rate of oxidation of NADH is followed over time as the decrease in the absorption at 340 nm.
The procedure in Example 43 is repeated replacing vanadyl sulfate with potassium ferricyanide.
The procedure in Example 43 is repeated replacing vanadyl sulfate with sodium molybdate.
The procedure in Example 43 is repeated replacing vanadyl sulfate with sodium phosphotungstate.

[2] = DNP test for acetaldehyde formation: ethanol oxidation with the enzyme solution omitted; conditions: no additive, stood 15 minutes
Procedure: (§1) The reagent quenches any oxidative reaction of alcohol as well as detects the formation of acetaldehyde. An orange, crystalline precipitate indicates a positive reaction.
(§2) The DNP reagent is a fresh solution of 0.5 gm. of 2.4-dinitrophenylhydrazine in 20 mL methanol and 5 mL concentrated sulfuric acid, diluted to 50 mL of deionized distilled water.
The procedure in Example 1 was repeated with the omission of the enzyme solution.
The procedure in Example 3 was repeated with the omission of the enzyme solution.
The procedure in Example 4 was repeated with the omission of NAD^+.
The procedure in Example 2 is repeated using a pH 7.25 1M phosphate buffer.
The procedure in Example 4 is repeated using a pH 7.25 1M phosphate buffer.
The procedure in Example 5 is repeated using a pH 7.25 1M phosphate buffer.

[3] = biological target: T1, Alcohol Dehydrogenase (from Equine liver) (Equus caballus, UniProt P00327); assay: DNP test for acetaldehyde formation: ethanol oxidation by NAD+ with Alcohol Dehydrogenase, with or without additive
T1 construct: Alcohol Dehydrogenase (from Equine liver); from tissue; host or cells: equine liver
Procedure: as §1, §2
To a 0.05M solution of ethanol in a 1M (pH 9.25) phosphate buffer (10 μL) are added 10 μL each of a solution 0.08M in NAD^+ (in deionized distilled water) and 4 U/mL Alcohol Dehydrogenase (from Equine liver) in the above buffer, and diluted to 100 μL with buffer. At the end of a specified time, it was quenched with the DNP reagent.
The procedure in Example 1 was repeated with the addition of 10 μL of a 0.01M vanadyl sulfate solution in deionized distilled water.
The procedure-in Example 2 is repeated using a pH 7.25 1M phosphate buffer.
The procedure in Example 3 is repeated using a pH 7.25 1M phosphate buffer.

ADH, sequence (P00327 whole entry): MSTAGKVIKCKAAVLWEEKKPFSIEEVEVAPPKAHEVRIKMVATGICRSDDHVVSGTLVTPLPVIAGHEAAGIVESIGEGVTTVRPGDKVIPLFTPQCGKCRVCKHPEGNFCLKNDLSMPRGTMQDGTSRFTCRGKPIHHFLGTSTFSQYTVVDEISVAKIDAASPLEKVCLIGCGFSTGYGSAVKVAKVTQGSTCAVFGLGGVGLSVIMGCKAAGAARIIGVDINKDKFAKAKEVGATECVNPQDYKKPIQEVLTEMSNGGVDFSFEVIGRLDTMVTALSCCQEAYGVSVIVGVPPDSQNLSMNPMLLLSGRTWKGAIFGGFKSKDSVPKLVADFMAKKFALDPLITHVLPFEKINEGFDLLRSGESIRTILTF
T1 sequence (P00327 whole entry): as above

**Q.** Which “Relative rates of Ethanol Oxidation in presence of Additives (Control = 1)” value (from here on “Relative rates of Ethanol Oxidation”) (ADH; additive .000005M) does the source give for `O=C1c2c(O)cccc2C([C@@H]2O[C@H](CO)[C@@H](O)[C@H](O)[C@H]2O)c2cc(CO)cc(O)c21` (stereo partly shown) [Aloin] here?
**A.** 1.07

**Q.** What about the “Relative rates of Ethanol Oxidation” value (ADH; additive .00001M) of the same compound?
**A.** 1.19

**Q.** With `O=c1c(-c2ccc(O)cc2)coc2cc(O)ccc12` [Daidezin] as the compound, how does the “Relative rates of Ethanol Oxidation” value (ADH; additive .000005M) read?
**A.** 1.28

**Q.** What about the “Relative rates of Ethanol Oxidation” value (ADH; additive .00001M) of the same compound?
**A.** 1.38

**Q.** Which “Relative rates of Ethanol Oxidation” value (ADH; additive .000005M) does the source give for `O=C(O)c1cc(C(=O)O)c2c(n1)C(=O)C(=O)c1cc(C(=O)O)[nH]c1-2` [Methoxatin, 4,5-Dihydro-4,5-dioxo-1H-pyrrolo [2,3-f] quinoline-2,7,9-tricarboxylic acid] here?
**A.** 1.29

**Q.** And the “Relative rates of Ethanol Oxidation” value (ADH; additive .00001M)?
**A.** 1.59

**Q.** With `[Na+].[Na+].[O]=[Mo](=[O])([O-])[O-]` [Molybdate, sodium molybdate] as the compound, how does the “Slope” value ([1]; pH 7.25) read?
**A.** .00000012 mol/L/min

**Q.** And the “Slope (OD/Min)” value ([1]; pH 7.25, absorption at 340 nm, * unexplained, text mentions an induction period)?
**A.** .0025* OD/Min

**Q.** What about the “Slope” value ([1]; pH 9.25) of the same compound?
**A.** .0000003 mol/L/min

**Q.** What about the “Slope (OD/Min)” value ([1]; pH 9.25, absorption at 340 nm, * unexplained, text mentions an induction period) of the same compound?
**A.** .0035* OD/Min

**Q.** For `NC(=O)c1ccc[n+]([C@@H]2O[C@H](COP(=O)([O-])OP(=O)(O)OC[C@H]3O[C@@H](n4cnc5c(N)ncnc54)[C@H](O)[C@@H]3O)[C@@H](O)[C@H]2O)c1` [NAD^+, Nicotinamide Adenine Dinucleotide, reference compound], which “DNP reaction (acetaldehyde formation)” value ([2]; pH 7.25, ethanol + NAD+) is on record?
**A.** negative

**Q.** And the “DNP reaction (acetaldehyde formation)” value ([2]; pH 9.25, ethanol + NAD+)?
**A.** negative

**Q.** Which results are given for `O=S(=O)([O-])[O-].[O]=[V+2]` [vanadyl sulfate]?
**A.** DNP reaction (acetaldehyde formation) ([3]; pH 7.25): positive; DNP reaction (acetaldehyde formation) ([3]; pH 9.25): positive; Slope ([1]; pH 7.25): .0000036 mol/L/min; Slope (OD/Min) ([1]; pH 7.25): .0079 OD/Min; Slope ([1]; pH 9.25): .000005 mol/L/min; Slope (OD/Min) ([1]; pH 9.25): .0112 OD/Min

**Q.** With ammonium molybdate as the compound, how does the “DNP results of Examples 1-5 repeated with the additive in place of vanadyl sulfate” value ([3]; pH 9.25) read?
**A.** almost identical results

**Q.** With sodium phosphotungstate as the compound, how does the “DNP results of Examples 25-30 repeated with the additive in place of vanadyl sulfate” value ([3]; pH 7.25) read?
**A.** almost identical results

**Q.** And the “DNP results of Examples 1-5 repeated with the additive in place of vanadyl sulfate” value ([3]; pH 9.25)?
**A.** almost identical results

**Q.** And the “Slope” value ([1]; pH 7.25)?
**A.** 0 mol/L/min

**Q.** And the “Slope (OD/Min)” value ([1]; pH 7.25)?
**A.** 0 OD/Min

**Q.** And the “Slope” value ([1]; pH 9.25)?
**A.** .0000006 mol/L/min

**Q.** And the “Slope (OD/Min)” value ([1]; pH 9.25)?
**A.** .007* OD/Min

— patent US7323452B2, “Method for the accelerated in vivo removal of ethanol” (Wardan, L.L.C., priority 2000, dated 2008)
